From patent publication US11654119B2, “Bioavailable curcumin nanoparticles and methods of making” (NUtech Ventures, priority 2018, dated 2023)

Legend:
[1] = 10 MPa and 40° C.; cited from earlier work
[2] = Solubility of curcumin in ethanol; type: physicochemical
Experimental: Impregnation of curcumin was conducted during the solvent exchange step. Excess curcumin was mixed with ethanol at room temperature (21° C.) and the undissolved curcumin was removed by filtration through a 0.45 μm pore-size filter. […] Afterwards, curcumin impregnated alcogels were dried using the same SC-CO2 drying conditions. Moreover, curcumin impregnation was investigated at 60° C., where higher solubility of curcumin in ethanol was obtained. Curcumin impregnated NSAs were called CUR-NSA-60° C. or CUR-NSA-RT depending on the impregnation temperature of 60° C. or room temperature (RT), respectively. Curcumin impregnated NSAs were stored in the freezer at −18° C. until characterized.
Impregnation capacity of the Curcumin-NSA-RT, where impregnation was performed at room temperature (21° C.), was 14.4 mg curcumin/g NSA (FIG. 5). When temperature of the impregnation increased to 60° C. […] Impregnation capacity was basically based on the solubility of curcumin in ethanol. […] The reason for a drastic increase in the impregnation capacity at 60° C. was the crystallization of curcumin in the saturated ethanolic curcumin solution on the surface of the NSA due to temperature drop to 40° C. during SC-CO2 drying. Crystallization from ethanol before the supercritical conditions reached led to the formation of long curcumin crystals (data not shown) which impacted the bioaccessibility of curcumin after simulated digestion (FIG. 10).

[3] = Simulated gastrointestinal digestion (oral, gastric, intestinal); bioaccessible fraction; type: in vitro ADME; details: after simulated digestion
Experimental: Gastrointestinal digestion of the samples was simulated adopting the method described by Minekus et al., 2014, Food & Function, 5(6), 1113-1124. Gastrointestinal digestion consisted of a sequential oral, gastric and intestinal digestion. Simulated salivary fluid (SSF), simulated gastric fluid (SGF) and simulated intestinal fluid (SIF) were prepared using a method reported previously (Minekus et al., 2014). […] The experiments were performed in 50 mL Erlenmeyer flasks. All digestion experiments were carried out in triplicate.
First, the sample (0.25 g) and SSF electrolyte stock solution (3.5 mL) were added into the flask. Then, 0.5 mL of α-amylase solution (750 U/mL) was included to have a final mixture with 75 U/mL. Subsequently, 25 μL of 0.3 M CaCl2 and 0.975 mL of deionized water were added. Finally, pH of the mixture was adjusted to pH 7.0 and the mixture was agitated in a shaking water bath (Precision SWB 27, Thermo Fisher Scientific, NH, USA) for 30 sec at 37° C. with a mixing rate of 150 rpm (Mennah-Govela & Bornhorst, 2016; Minekus et al., 2014).
After the oral digestion, oral bolus (5 mL) was mixed with SGF electrolyte stock solution (3.25 mL, pH 3.0) and the pH was adjusted to 3.0 using 1 M HCl (75 μL). […] The pH of the mixture was monitored and kept at pH 3.0 using 1 M HCl. […]

[4] = Plasma CUR concentration over time after administration (bioavailability in rats); type: in vivo; details: rat, 0-90 minutes after administration, read-out: maximum concentration of CUR in the plasma (Cmax)
From the text: FIG. 12 depicts the bioavailability of curcumin (CUR) impregnated in the nanoporous starch aerogels in rats as analyzed in Example 2.
The plasma CUR concentration was monitored over time after administration.

[5] = in humans; cited from earlier work

increase in the solubility of curcumin in ethanol ([2]; 21 to 60° C.): 3.9 fold
solubility of curcumin in ethanol ([2]; 21° C.): 4.4±0.2 mg curcumin/mL ethanol
solubility of curcumin in ethanol ([2]; 60° C.): 17.2±0.3 mg curcumin/mL ethanol
concentration of curcumin in the bioaccessible fraction [3]: 3000 ng/mL
Cmax [4]: 500 nM
Compound: COc1cc(/C=C/C(=O)CC(=O)/C=C/c2ccc(O)c(OC)c2)ccc1O [crude curcumin, Curcumin (diferuloylmethane)]
solubility of curcumin in SC-CO2 [1]: ~0.4 ng/mL
bioavailability [5]: ~1%
